Experimental findings from ChEMBL document CHEMBL5126585, “Synthesis and evaluation of 1,2,3-dithiazole inhibitors of the nucleocapsid protein of feline immunodeficiency virus (FIV) as a model for HIV infection” (Bioorg Med Chem, 2022) are described below.

Where only a bound is given, the exact number is not on record here.

Series [1] is described as follows: Therapeutic index, ratio of CC50 for cytotoxicity against IL2 independent FL-4 cells to EC50 for antiviral activity against Feline immunodeficiency virus infected in IL2 independent FL-4 cells. Type of series: toxicity, cell-based. The following applies: cat; read-out: Ratio CC50/EC50.
Series [2] concerns Feline immunodeficiency virus. Put plainly: Antiviral activity against Feline immunodeficiency virus infected in IL2 independent FL-4 cells assessed as reduction in viral replication treated for 7 days with daily replacement by qRT-PCR analysis. Particulars: FL-4, 168 h. Type of series: functional, organism-based.
Series [3] is described as follows: Cytotoxicity against IL2 independent FL-4 cells assessed as reduction in cell viability measured after 7 days by MTT assay. Particulars: cat, time 7 day. It is filed as toxicity, cell-based, Felis catus.
Series [4] in a line: Cytotoxicity against CRFK cells assessed as reduction in cell viability incubated for 24 hrs by MTT assay. Type of series: toxicity, cell-based, Felis catus. Particulars: cat.
A short description of series [5]: Cytotoxicity against FEA cells assessed as reduction in cell viability incubated for 24 hrs by MTT assay. It is filed as toxicity, cell-based, Felis catus. The following applies: cat.

For the compound `Clc1nss/c1=N\c1ccccn1`, the selectivity ratio in series [1] was determined as 105. In addition, the concentration for a half-maximal effect (EC50) in series [2] is 0.38 µM. In addition, the CC50 at 168 h in series [3] is 40 µM. The results for the CC50 at 24 h in series [4] and in series [5] were 29 µM and 4.6 µM, respectively.
For the compound `Clc1nss/c1=N\c1ccc(Br)cc1`, the selectivity ratio in series [1] was > 160. For the same compound, the EC50 in series [2] was determined as 0.64 µM. Besides, the CC50 at 168 h in series [3] was > 100 µM. Moreover, the CC50 at 24 h was > 100 µM in series [4] and 40 µM in series [5].
With `Clc1nss/c1=N\c1nccs1`, the selectivity ratio in series [1] amounted to 1.6. Moreover, the EC50 in series [2] was 3 µM. The CC50 at 168 h in series [3] is 4.7 µM. The values for the CC50 at 24 h in series [4] and in series [5] were 7.6 µM and 8.4 µM, respectively.
In the case of `Clc1nss/c1=N\c1ccccc1Br`, the selectivity ratio in series [1] came to 3.3. Further, the EC50 in series [2] is 12 µM. For the same compound, the cytotoxic concentration (CC50) at 168 h in series [3] came to 39 µM. Besides, the half-maximal cytotoxic concentration (CC50) at 24 h in series [4] and in series [5] was > 100 µM each time.
Take `Clc1ccc(/N=c2\ssnc2Cl)cc1`: in series [1], the selectivity ratio worked out at 79. The half-maximal effective concentration (EC50) in series [2] was 0.57 µM. Moreover, the half-maximal cytotoxic concentration (CC50) at 168 h in series [3] is 45 µM. Also, the 50% cytotoxic concentration (CC50) at 24 h in series [4] was > 100 µM; in series [5], 51 µM.
`N#Cc1ccc(/N=c2\ssnc2Cl)cc1`: the selectivity ratio in series [1] was > 160. For the same compound, the EC50 in series [2] turned out to be 0.62 µM. For the same compound, in series [3], the cytotoxic concentration (CC50) at 168 h was > 100 µM. Further, the figures for the CC50 at 24 h in series [4] and in series [5] were 31 µM and 50 µM, respectively.
Turning to `Cc1cc(/N=c2\ssnc2Cl)n[nH]1`, the selectivity ratio in series [1] is 600. Further, the concentration giving a half-maximal response (EC50) in series [2] was found to be 0.083 µM. Moreover, in series [3], the CC50 at 168 h stood at 50 µM. The CC50 at 24 h is > 100 µM in series [4] and 55 µM in series [5].
Regarding `O=[N+]([O-])c1ccc(/N=c2\ssnc2Cl)cc1`, the selectivity ratio in series [1] is 170. In addition, the EC50 in series [2] is 0.29 µM. For the same compound, the cytotoxic concentration (CC50) at 168 h in series [3] was found to be 49 µM. Also, the 50% cytotoxic concentration (CC50) at 24 h in series [4] came out at 31 µM; in series [5] it was 50 µM.
Regarding `Fc1ccc(/N=c2\ssnc2Cl)cc1`, the selectivity ratio in series [1] is > 100. The concentration giving a half-maximal response (EC50) in series [2] worked out at 0.98 µM. For the same compound, the half-maximal cytotoxic concentration (CC50) at 168 h in series [3] was > 100 µM. Besides, the CC50 at 24 h in series [4] and in series [5] was > 100 µM each time.
On to `FC(F)(F)c1ccc(/N=c2\ssnc2Cl)cc1`, for which the selectivity ratio in series [1] was > 6.7. Further, the EC50 in series [2] is 15 µM. Further, the CC50 at 168 h in series [3] is > 100 µM. The cytotoxic concentration (CC50) at 24 h in series [4] and in series [5] was > 100 µM in each case.
On to `Clc1nss/c1=N\c1cccc(Br)c1`, for which the 50% effective concentration (EC50) in series [2] was > 100 µM. Further, the CC50 at 168 h in series [3] is > 100 µM. The 50% cytotoxic concentration (CC50) at 24 h in series [4] and in series [5] was > 100 µM in each case.
Take `CSc1ccc(/N=c2\ssnc2Cl)cc1`: the selectivity ratio in series [1] worked out at 2.4. Moreover, the EC50 in series [2] stood at 21 µM. Also, in series [3], the CC50 at 168 h was 51 µM. The CC50 at 24 h in series [4] is 43 µM; in series [5], 53 µM.
As for `Cc1cc(OC(F)(F)F)ccc1/N=c1\ssnc1Cl`, the EC50 in series [2] is > 100 µM. Moreover, in series [3], the 50% cytotoxic concentration (CC50) at 168 h is > 100 µM. Besides, the half-maximal cytotoxic concentration (CC50) at 24 h in series [4] and in series [5] was > 100 µM in each case.
As to `Clc1nss/c1=N\c1cc(-c2ccccc2)n[nH]1`, the selectivity ratio in series [1] was 9.2. Further, in series [2], the concentration for a half-maximal effect (EC50) was 0.53 µM. For the same compound, the half-maximal cytotoxic concentration (CC50) at 168 h in series [3] amounted to 4.9 µM. The CC50 at 24 h stood at 18 µM in series [4] and 31 µM in series [5].
With `Cc1cc(/N=c2\ssnc2Cl)n(Cc2ccccc2)n1`, in series [1], the selectivity ratio was 2.4. Also, the concentration giving a half-maximal response (EC50) in series [2] came out at 22 µM. Moreover, in series [3], the CC50 at 168 h was found to be 52 µM. Moreover, the cytotoxic concentration (CC50) at 24 h came out at 33 µM in series [4] and 30 µM in series [5].
For `Clc1nss/c1=N\c1ccc(Oc2ccccc2)cc1`, in that order: > 2.9, 35 µM, > 100 µM, > 100 µM and > 100 µM.
As for `Clc1nss/c1=N\c1ccc2c(c1)OCO2`, the selectivity ratio in series [1] came out at 2.5. In addition, the 50% effective concentration (EC50) in series [2] worked out at 20 µM. Besides, in series [3], the cytotoxic concentration (CC50) at 168 h was 49 µM. Besides, the values for the CC50 at 24 h in series [4] and in series [5] were 44 µM and 53 µM, respectively.
On to `Clc1nss/c1=N\c1ccc(OCc2ccccc2)cc1`, for which the selectivity ratio in series [1] amounted to 1.9. In addition, the EC50 in series [2] was found to be 23 µM. Also, the CC50 at 168 h in series [3] was 44 µM. The values for the CC50 at 24 h in series [4] and in series [5] were > 100 µM and 74 µM, respectively.
For `CCCCOc1ccc(/N=c2\ssnc2Cl)cc1`, in that order: > 3.8, 26 µM, > 100 µM, > 100 µM and > 100 µM.
As for `N#Cc1c(Br)cccc1/N=c1\ssnc1Cl`, in series [1], the selectivity ratio amounted to 3.5. In addition, the concentration giving a half-maximal response (EC50) in series [2] was determined as 15 µM. Besides, the CC50 at 168 h in series [3] came out at 53 µM. Moreover, the cytotoxic concentration (CC50) at 24 h stood at 38 µM in series [4] and 41 µM in series [5].
For `Clc1nss/c1=N\c1cc(-c2ccccc2)nn1Cc1ccccc1`, the selectivity ratio in series [1] amounted to 1.7. Moreover, the EC50 in series [2] is 31 µM. The 50% cytotoxic concentration (CC50) at 168 h in series [3] stood at 53 µM. Moreover, the CC50 at 24 h stood at 37 µM in series [4] and 29 µM in series [5].
On to `FC(F)(F)Oc1ccc(/N=c2\ssnc2Cl)cc1Br`, for which the concentration for a half-maximal effect (EC50) in series [2] was > 100 µM. For the same compound, the half-maximal cytotoxic concentration (CC50) at 168 h in series [3] is > 100 µM. In addition, the CC50 at 24 h in series [4] and in series [5] was > 100 µM each time.
As for `O=[N+]([O-])c1cccnc1/N=c1\ssnc1Cl`, the selectivity ratio in series [1] amounted to 1.3. For the same compound, the concentration giving a half-maximal response (EC50) in series [2] was 2 µM. Moreover, in series [3], the CC50 at 168 h turned out to be 2.6 µM. Besides, the values for the CC50 at 24 h in series [4] and in series [5] were 21 µM and 6.1 µM, respectively.
On to `CCOc1cccnc1/N=c1\ssnc1Cl`, for which the selectivity ratio in series [1] came out at 90. Also, in series [2], the EC50 came out at 0.55 µM. In series [3], the CC50 at 168 h was 49 µM. In addition, the CC50 at 24 h in series [4] turned out to be 42 µM; in series [5] it was 45 µM.
For `Clc1nss/c1=N\c1ccc(I)cc1`, in series [1], the selectivity ratio came to 129. The concentration giving a half-maximal response (EC50) in series [2] amounted to 0.38 µM. The CC50 at 168 h in series [3] was found to be 49 µM. In addition, the values for the 50% cytotoxic concentration (CC50) at 24 h in series [4] and in series [5] were 73 µM and 44 µM, respectively.
For `COc1cccc(/N=c2\ssnc2Cl)n1`, in that order: 178, 0.26 µM, 47 µM, 34 µM and 4.3 µM.
Turning to `COc1cccnc1/N=c1\ssnc1Cl`, the selectivity ratio in series [1] stood at 21. In addition, in series [2], the EC50 was 2.9 µM. For the same compound, the half-maximal cytotoxic concentration (CC50) at 168 h in series [3] stood at 61 µM. Moreover, the half-maximal cytotoxic concentration (CC50) at 24 h in series [4] and in series [5] was 37 µM each time.
With `FC(F)(F)Oc1ccc(/N=c2\ssnc2Cl)cc1Cl`, the selectivity ratio in series [1] came out at 1. In addition, in series [2], the EC50 stood at 23 µM. Further, the CC50 at 168 h in series [3] came out at 23 µM. For the same compound, the CC50 at 24 h in series [4] is 85 µM; in series [5], > 100 µM.
Take `N#Cc1cccnc1/N=c1\ssnc1Cl`: the selectivity ratio in series [1] worked out at 122. Further, the concentration for a half-maximal effect (EC50) in series [2] is 0.42 µM. Further, in series [3], the CC50 at 168 h worked out at 51 µM. The results for the cytotoxic concentration (CC50) at 24 h in series [4] and in series [5] were 3.1 µM and 36 µM, respectively.
For `Fc1ccc(F)c(/N=c2\ssnc2Cl)c1`, in that order: 131, 0.68 µM, 89 µM, > 100 µM and > 100 µM.
For the compound `Clc1ccccc1/N=c1\ssnc1Cl`, the selectivity ratio in series [1] was determined as 2.6. Besides, the EC50 in series [2] is 20 µM. For the same compound, the half-maximal cytotoxic concentration (CC50) at 168 h in series [3] turned out to be 51 µM. Also, the CC50 at 24 h in series [4] was > 100 µM; in series [5] it was 25 µM.
In the case of `Clc1nss/c1=N\c1cccc(Br)n1`, the selectivity ratio in series [1] worked out at 92. Also, in series [2], the 50% effective concentration (EC50) amounted to 0.48 µM. Besides, the CC50 at 168 h in series [3] came to 44 µM. The CC50 at 24 h in series [4] stood at 38 µM; in series [5], 52 µM.
As for `FC(F)(F)Oc1ccc(/N=c2\ssnc2Cl)cc1`, the EC50 in series [2] is > 100 µM. Moreover, the CC50 at 168 h in series [3] is > 100 µM. Further, the half-maximal cytotoxic concentration (CC50) at 24 h in series [4] and in series [5] was > 100 µM throughout.
